The results in this text go back to patent publication US6750253B1, “Aminobenzophenones as inhibitors of il-1β and tnf-α” (Leo Pharmaceutical Products Ltd. A/S, priority 1999, dated 2004).

What all share (type): cell-based
One assay concerns IL-1β. Nature of the assay: Inhibition of IL-1β secretion in LPS stimulated peripheral blood mononuclear cells. Conditions: PBMC; LPS stimulated human peripheral blood mononuclear cells, 18 hours, ELISA; read-out: The median inhibition concentration (IC50, nM) of IL-1β. How it is done:
(§1) To study the effect of the compound of the present invention in vitro the inhibition of the IL-1β and TNF-α secretion was measured using the following procedure:
(§2) Cytokine production was measured in the media from lipopolysaccharide (LPS) stimulated peripheral blood mononuclear cells. The mononuclear cells were isolated from human. peripheral blood by Lymphoprep® (Nycomed, Norway) fractionation and suspended in RPMI 1640 (growth medium) with foetal calv serum (FCS, 2%), at a concentration of 5×10^5 cells/ml. The cells were incubated in 24-well tissue culture plates in 1 ml aliquots. Test compounds were dissolved in dimethylsulfoxide (DMSO, 10 mM) and were diluted with the medium. Compounds were added to the cells for 30 minutes, then LPS ([…] final concentration) was added. The plates were incubated for 18 hours, and the concentration of IL-1β and TNF-α in the medium was determined by enzyme-linked immunosorbent assays. The median inhibitory concentrations (IC50) of the compounds were calculated.
A general note: ELISA stands for enzyme-linked immunosorbent assay.

For the next assay, the system named is TNF-α. Description: Inhibition of TNF-α secretion in LPS stimulated peripheral blood mononuclear cells. The settings on record: PBMC; LPS stimulated human peripheral blood mononuclear cells, 18 hours, ELISA; read-out: The median inhibition concentration (IC50, nM) of TNF-α. How it is done:
as §1, §2

The test system of a further assay is PMN-superoxide. Nature of the assay: Inhibition of PMN superoxide secretion (ferricytochrome C reduction). The settings on record: human PMN granulocytes primed with TNF-α, stimulated with fMLP; read-out: The median inhibition concentration (IC50, nM) of PMN-superoxide. The method, then: The compounds of the present invention also show similar activities in the ability to inhibit PMN (polymorphonuclear) superoxide secretion which is also indicative of potentially useful anti-inflammatory drugs The compounds were tested using the following procedure:
Human polymorphonuclear (PMN) granulocytes were Isolated from human blood by dextran sedimentation, Lymphoprep® fractionation and hypotonic lysis of contaminating erythrocytes.
Superoxide anion generation was measured as the superoxide dismutase inhibitable reduction of ferricytochrome C (Madhu, S. B. et al, Inflammation, 16 241, (1992)). The cells were suspended in Hanks' balanced salt solution, and incubated for 10 minutes at 37° C. with test compounds. The cells were primed by the addition of TNF-α (3 ng/ml final concentration) for 10 minutes, and then ferricytochrome C, (final concentration 750 μg/ml), bovine serum albumin (BSA, final concentration 1 mg/ml) and formyl-methionyl-leucyl-phenylalanine (fMLP, final concentration 10^−7 M) were added for 3 minutes. The cells were chilled on ice, and were spun down. The optical densities in the cell-free supernatant was measured in a spectrophotometer. The median Inhibitory concentration (IC50) of the compounds was calculated.

On to `Cc1ccccc1C(=O)c1ccc(Nc2ccccc2NC(=O)NC2CCCCC2)cc1Cl` [Compound 101, 1-Cyclohexyl-3-[2-[3-chloro-4-(2-methylbenzoyl)-phenylamino]phenyl]urea], for which the IC50 in the assay with IL-1β worked out at 13 nM; with TNF-α it was 5 nM; in the assay with PMN-superoxide it was 4 nM.

As for `CCNC(=O)Nc1ccccc1Nc1ccc(C(=O)c2ccccc2C)c(Cl)c1` [Compound 102, 1-Ethyl-3-[2-[3-chloro-4-(2-methylbenzoyl)-phenylamino]phenyl]urea], the IC50 with IL-1β was determined as 22 nM; in the assay on TNF-α, 2.2 nM; in the assay on PMN-superoxide, 13 nM.

Turning to `CCNC(=O)Nc1cc(F)ccc1Nc1ccc(C(=O)c2ccccc2C)c(Cl)c1` [Compound 114, 1-Ethyl-3-[2-[3-chloro-4-(2-methylbenzoyl)-phenylamino]-5-fluoro-phenyl]urea], the IC50 in the assay with IL-1β was 7.9 nM; with TNF-α, 3.2 nM; with PMN-superoxide, 4 nM.

`CCNC(=O)Nc1ccccc1Nc1ccc(C(=O)c2ccccc2)cc1` [ref. b), 1-Ethyl-3-[2-(4-benzoyl-phenylamino)phenyl]urea, reference compound]: the IC50 is > 1000 nM with IL-1β, 631 nM in the assay on TNF-α and 316 nM with PMN-superoxide.
